The results in this text go back to the Kinase Knowledgebase extract (Sharma et al. 2016).

Molecules are shown by their SMILES.

The assay deals with MAPK14 (human) (UniProt Q16539). Description: Inhibition of MAPK14 Kinase Activity.
Sequence of MAPK14 (human) (Q16539 whole entry, looked up): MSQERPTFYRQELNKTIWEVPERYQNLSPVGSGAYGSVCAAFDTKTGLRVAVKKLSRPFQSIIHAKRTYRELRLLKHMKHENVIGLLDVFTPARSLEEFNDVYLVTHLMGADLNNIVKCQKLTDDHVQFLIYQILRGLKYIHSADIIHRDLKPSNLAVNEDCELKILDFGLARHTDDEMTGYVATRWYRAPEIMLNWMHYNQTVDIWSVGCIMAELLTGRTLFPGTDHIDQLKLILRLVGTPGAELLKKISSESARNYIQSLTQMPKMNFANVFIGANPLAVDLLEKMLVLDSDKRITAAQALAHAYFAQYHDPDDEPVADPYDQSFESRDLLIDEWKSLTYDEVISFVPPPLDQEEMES

Turning to `CC(C)Cn1c(N)nc2ccc(-c3[nH]c(-c4ccccc4C(F)(F)F)nc3-c3ccc(F)cc3)cc21`, the half-inhibitory concentration (IC50) – broadly, the point on the concentration scale where inhibition reaches its midpoint – is not above 5 µM.

In turn, `CC(C)Cn1c(N)nc2ccc(-c3nc(-c4c(C(F)(F)F)cccc4C(F)(F)F)[nH]c3-c3ccccc3)cc21` showed an IC50 not above 5 µM.

As for `CC(C)Cn1c(N)nc2ccc(-c3c(-c4ccc(F)cc4)nc4n3CCC4)cc21`, the IC50 is not above 5 µM.

As for `CC(C)(C)Cn1c(N)nc2ccc(-c3[nH]c(-c4c(F)cccc4Cl)nc3-c3ccccc3)cc21`, the IC50 is not above 5 µM. `CC(C)n1c(N)nc2ccc(-c3[nH]c(-c4ccccc4)nc3-c3ccccc3)cc21`: the half-maximal inhibitory concentration (IC50) was not above 5 µM. Under `CC(C)Cn1c(N)nc2ccc(-c3[nH]c(-c4c(F)cc(OCCN5CCCC5)cc4F)nc3-c3ccccc3)cc21` stands not above 5 µM. Next, `CC(C)Cn1c(N)nc2ccc(-c3c[nH]nc3-c3ccccc3)cc21`: not above 5 µM; `CC(C)(C)Cn1c(N)nc2ccc(-c3[nH]c(C4CC4)nc3-c3ccc(F)cc3F)cc21`: not above 5 µM; `CC(C)Cn1c(N)nc2ccc(-c3nc(-c4c(Cl)cccc4Cl)[nH]c3-c3ccc(F)cc3)cc21`: not above 5 µM. `Nc1nc2ccc(-c3[nH]c(-c4c(F)cccc4F)nc3-c3ccccc3)cc2n1CC1CCCCC1`: the IC50 is not above 5 µM. In turn, `Nc1nc2ccc(-c3nc(-c4c(F)cccc4Cl)[nH]c3-c3ccc(F)cc3F)cc2n1CC1CC1` showed a concentration for half-maximal inhibition (IC50) not above 5 µM. Next, `CC(C)n1c(N)nc2ccc(-c3n[nH]nc3-c3ccccc3)cc21`: not above 5 µM; `CC(C)Cn1c(N)nc2ccc(-c3[nH]c(-c4ccc(Cl)cc4)nc3-c3ccccc3)cc21`: not above 5 µM; `CCOCn1nc(-c2ccccc2)c(-c2ccc3nc(N)n(CC(C)C)c3c2)n1`: not above 5 µM. Under `Cc1nc(-c2ccc(F)cc2F)c(-c2ccc3ncn(CC(C)C)c3c2)[nH]1` stands not above 5 µM; under `C[C@@H](n1c(N)nc2ccc(-c3[nH]c(-c4c(Cl)cccc4Cl)nc3-c3ccccc3)cc21)C(C)(C)C`, not above 5 µM.

`Nc1nc2ccc(-c3[nH]c(-c4c(F)cccc4F)nc3-c3ccccc3)cc2n1-c1ccccc1` returned a concentration for half-maximal inhibition (IC50) not above 5 µM. The molecule `Cn1c(N)nc2ccc(-c3[nH]c(-c4c(F)cccc4F)nc3-c3ccccc3)cc21` had a 50% inhibitory concentration (IC50) not above 5 µM.

Regarding `Nc1nc2ccc(-c3nc(-c4c(F)cccc4C(F)(F)F)[nH]c3-c3ccccc3)cc2n1CC1CC1`, the IC50 is not above 5 µM. Next, `CC(C)Cn1c(N)nc2ccc(-c3cn(C(C)(C)C)nc3-c3ccc(F)cc3)cc21`: not above 5 µM.

Regarding `CC(C)Cn1c(N)nc2ccc(-c3cn(C)nc3-c3ccc(F)cc3)cc21`, the IC50 is not above 5 µM.

In turn, `CC(C)Cn1c(N)nc2ccc(-c3cn[nH]c3-c3ccc(F)cc3)cc21` gave an IC50 not above 5 µM. Next, `CC(C)Cn1c(N)nc2ccc(-c3[nH]c(C(C)(C)C)nc3-c3ccccc3)cc21`: not above 5 µM; `Cc1ccsc1-c1nc(-c2ccc3nc(N)n(CC(C)C)c3c2)c(-c2ccccc2)[nH]1`: not above 5 µM; `CC(C)(C)Cn1c(N)nc2ccc(-c3[nH]c(-c4c(F)cccc4F)nc3-c3ccccc3)cc21`: not above 5 µM. With `CC(C)Cn1c(N)nc2ccc(-c3n[nH]nc3-c3ccc(F)cc3)cc21`, the half-inhibitory concentration (IC50) was not above 5 µM. `CCCn1c(N)nc2ccc(-c3[nH]c(-c4c(F)cccc4F)nc3-c3ccccc3)cc21` had an IC50 not above 5 µM.

The molecule `Fc1cccc(F)c1-c1nc(-c2ccccc2)c(-c2ccc3ncn(CC4CC4)c3c2)[nH]1` showed a half-inhibitory concentration (IC50) not above 5 µM. The molecule `CC(C)Cn1c(N)nc2ccc(-c3cn(-c4ccccc4F)nc3-c3ccccc3)cc21` displayed an IC50 not above 5 µM. Next, `Nc1nc2ccc(-c3[nH]c(-c4c(F)cccc4F)nc3-c3ccccc3)cc2n1Cc1ccccc1`: not above 5 µM; `CC(C)Cn1c(N)nc2ccc(-c3c(-c4ccccc4)ncn3C3CCCCC3)cc21`: not above 5 µM.
